The text below walks through data of US10898548B2, “Modulators of protein tyrosine phosphatase and uses thereof” (LEUVAS THERAPEUTICS, priority 2015, dated 2021).

For one experiment, the system named is JAK2 (pYpY1007/1008). In words: p-JAK2 ELISA on monocytes. The format is cell-based, human. Conditions: 1 hour, 50 nM fMLP 90 sec, CTRL 100. From the text: JAK2 regulation by PTPRG as assessed through the high-throughput phospho-proteomics analysis evidenced that PTPRG activation (Example 4, Table 9 and 10) provides a useful example of the exploitation of this analysis system for identification of targets and unexpected indications/uses for known and novel agents that regulate the phoshoproteome. […] Furthermore, the capability of fMLP to trigger JAKs activation has never been observed. The results described in Example 4 unexpectedly implicate JAK2 de-phosphorylation by PTPRG as playing a role in the anti-adhesive role of PTPRG on monocytes. To test this system-generated hypothesis we first set out to define the role of JAK2 in fMLP-triggered rapid adhesion in monocytes. Time course experiments, either performed with ELISA assay or Western Blot. Briefly, purified human monocytes were treated with buffer (resting) or with 50 nM fMLP for the indicated times (Table 12), and the phosphorylation was assessed by p-Jak2 elisa and Western Blot analysis. The JAK2 activation was determined with Elisa Kit JAK2 (pYpY1007/1008) (Invitrogen). Briefly, cells were stimulated with agonist and lysed following manufacturer's protocol; levels of phospho-JAK2 were quantified (absorbance at 450 nm) with a micro-well plate reader (Victor™ X5 Multilabel Plate Reader, Perkin Elmer). For Western blot analysis, cells were lysed in ice-cold 1% Nonidet P-40 buffer, containing phosphatase inhibitors and complete protease inhibitor cocktail (Roche). Total cell lysates were quantified by Bradford assay (Bio-Rad). Equal amounts of total lysates or of isolated membranes (as described in Example 1) were subjected to 10% SDS-PAGE and then blotted. After incubation with anti-PTPRG, anti gp91^Phox, anti phospho-JAK2, anti JAK2 and HRP-linked secondary antibodies (GE Healthcare), immunoreactive bands were visualized by ECL detection (EMD Millipore). Intensities of band signals were quantified by densitometric analysis (Quantity One, Bio-Rad) by using ImageQuant Las4000. Data are mean value of three experiments; the relative ratio of the band intensity of phosphor-JAK2 was normalized to the level of JAK2 band intensities.
Briefly, p-JAK2 ELISA assay on human monocytes treated with buffer (CTRL=control), 50 μM P1-WD, P1 or P1-WD scrambled peptides (Table 17), or with buffer (CTRL=control), 0.5 uM TAT-ICD or 50 μM TAT peptide (Table 18) for 1 hour at 37° C. and stimulated with 50 nM fMLP for 90 sec. Shown are percentages of fold increases over the control; mean values of 3 experiments in triplicate.
On the technique in general: ELISA stands for enzyme-linked immunosorbent assay.

Another experiment relates to T98G GBM cells. In words: MTT survival assay, T98G GBM cells. The format is cell-based, human. The protocol: The DBTRG-O5MG (Denver Brain Tumor Research Group 05) cell line was established from tissue from a patient with glioblastoma multiforme who had been treated with local brain irradiation and multi drug chemotherapy (Kruse C A, et al. 1992 In vitro Cell Dev Biol, 28A(9-10):609-14). U87 is a commonly studied and thoroughly characterized grade IV glioma cell line derived from malignant glioma (Clark M J, et al, 2010 Plos Genet. 6(1):e1000832.). T98G is a glioblastoma multiforme cell line extracted from a person (Stein G H, 1979, J. Cell Physiol, 99(1):43-54). Proliferation and survival were assessed following TAT-ICD or control peptide (Table 29) or the P1-WD or control peptide treatment using the MTT assay as described above. Data are relative absorption; mean and standard deviation.
(In general: Tetrazolium dyes change colour on reduction, which living cells bring about.)

For the next experiment, the system named is U251 GBM cells. In words: VYBRANT DyeCycle Violet early apoptosis, U251 GBM cells. The format is cell-based. The protocol:
(§1) Cell viability and survival was measured using the MTT assay, a colorimetric assay for assessing cell metabolic activity set up under conditions where the absorption reflects the number of viable cells present (Table 21 and 22) and expressed as relative absorption at 570 nm. Early apoptosis was measured using VYBRANT DyeCycle Violet stain (Molecular Probes), a DNA-selective, cell membrane-permeant dye that can distinguish the compacted state of the nuclear chromatin in apoptotic cells as determined by flow cytometry and presented as the percent of cells that are apoptotic (Table 23 and 24). The actual number of cells following treatment with TAT-ICD or TAT alone (Table 25) was determined using flow cytometry compared to an input of 5,000 cells at time zero. To confirm apoptosis the TUNEL labeling assay, which detects DNA strand breaks in apoptotic cells by fluorescence microscopy, was also used to examine U251 cells treated with the PTPRG WD. Briefly, the assay used an optimized terminal transferase ([…]) to label 3′OH ends in genomic DNA with TMR-dUTP, thus allowing the measurement and quantification of cell death by apoptosis. U251 cells were pretreated for 1, 3 and 6 hours with 50 μM P1-WD. Then cells were fixed and permeabilized, incubated with TUNEL reaction mixture for 1 h at RT, and then stained with DAPI (for nuclei detection) and with Alexa670-Phalloidin (to detect actin in cell membranes). After the staining steps, cells were visualized with a confocal microscope.

Another experiment concerns U251 cells. In words: TUNEL labeling assay, U251 cells. Conditions: 50 μM P1-WD. In kind it is cell-based. The protocol:
as §1, with “Briefly, U251 GBM cells, normal primary cortical murine neurons and a mixed culture of murine microglia and astrocytes were treated for 24, 48 and 72 hours with no treatment (control), delivery peptide (P1 or TAT) or increasing concentrations of P1-WD or TAT-ICD. Cell” for “Cell”
This finding was validated using the TUNEL in situ apoptosis cell death detection staining.

Where [1] appears, read: 0.5 uM TAT-ICD or 50 μM TAT peptide.
Where [2] appears, read: 50 μM P1-WD, P1 or P1-WD scrambled.
[3] abbreviates: P1 or P1-WD 50 μM, 24 hours, Control 971.
The mark [4] stands for this setting: P1 or P1-WD 50 μM, 48 hours, Control 1305.
Setting [5] is: P1 or P1-WD 50 μM, 72 hours, Control 1481.
Where [6] appears, read: P1 or P1-WD 50 μM, 6 h, Control 5.
The mark [7] stands for this setting: P1 or P1-WD 50 μM, 9 h, Control 12.
[8] abbreviates: P1 or P1-WD 50 μM, 24 h, Control 8.

As to “TAT-ICD: fusion recombinant protein SEQ ID 5: PTPRG intracellular domain aa 797-1445 fused to 13 aa TAT sequence”, the “p-JAK2 ELISA, percentages of fold increases over the control” value in the experiment on JAK2 (pYpY1007/1008) (setting [1]) was 53%. Moreover, the “absorbance in the MTT assay” value stood at 921 with T98G GBM cells (TAT-ICD 0.5 μM, 24 hours, CTRL 971); 1301 in the experiment with T98G GBM cells (TAT-ICD 0.5 μM, 48 hours, CTRL 1305); 1061 in the experiment on T98G GBM cells (TAT-ICD 0.5 μM, 72 hours, CTRL 1481); 745 in the experiment with T98G GBM cells (TAT-ICD 1 μM, 24 hours, CTRL 971); 947 with T98G GBM cells (TAT-ICD 1 μM, 48 hours, CTRL 1305); 935 in the experiment with T98G GBM cells (TAT-ICD 1 μM, 72 hours, CTRL 1481). Further, the “absorbance in the MTT assay” value in the experiment on T98G GBM cells (TAT-ICD 2 μM, 24 hours, CTRL 971) is 552; in the experiment with T98G GBM cells (TAT-ICD 2 μM, 48 hours, CTRL 1305) it was 687; in the experiment with T98G GBM cells (TAT-ICD 2 μM, 72 hours, CTRL 1481), 625. Further, the “percent of apoptotic cells (early apoptosis)” value (shortened to “percent of apoptotic cells”) worked out at 2.6% in the experiment on U251 GBM cells (TAT-ICD 0.5 uM, 6 hr, CTRL 4.6); 14.0% with U251 GBM cells (TAT-ICD 0.5 uM, 9 hr, CTRL 6.0); 21.0% in the experiment with U251 GBM cells (TAT-ICD 0.5 uM, 24 hr, CTRL 7.0); 6.0% with U251 GBM cells (TAT-ICD 1 uM, 6 hr, CTRL 4.6); 17.0% in the experiment on U251 GBM cells (TAT-ICD 1 uM, 9 hr, CTRL 6.0); 25.0% in the experiment with U251 GBM cells (TAT-ICD 1 uM, 24 hr, CTRL 7.0). The “percent of apoptotic cells” value with U251 GBM cells (TAT-ICD 2 uM, 6 hr, CTRL 4.6) was 15.0%; in the experiment with U251 GBM cells (TAT-ICD 2 uM, 9 hr, CTRL 6.0) it was 25.0%; with U251 GBM cells (TAT-ICD 2 uM, 24 hr, CTRL 7.0) it was 30.0%.

For “P1: Penetratin delivery peptide, 16 aa RQIKIWFQNRRMKWKK (SEQ ID 4), control [reference compound]”, the “p-JAK2 ELISA, percentages of fold increases over the control” value in the experiment with JAK2 (pYpY1007/1008) (setting [2]) is 95%. Besides, the “absorbance in the MTT assay” value in the experiment with T98G GBM cells (setting [3]) was 1113; with T98G GBM cells (setting [4]), 1019; in the experiment on T98G GBM cells (setting [5]), 1111. Also, the “percent of apoptotic cells” value turned out to be 8% with U251 GBM cells (setting [6]), 15% in the experiment with U251 GBM cells (setting [7]) and 15% with U251 GBM cells (setting [8]). Further, the “DNA fragmentation, TUNEL staining” value in the experiment with U251 cells was “did not show fragmented DNA or cell loss”.

“TAT (GRKKRRQRRRPPQ; listed as Homo sapiens) [reference compound]”: in the experiment on JAK2 (pYpY1007/1008) (setting [1]), the “p-JAK2 ELISA, percentages of fold increases over the control” value was determined as 99%. Besides, the “absorbance in the MTT assay” value came to 954 in the experiment on T98G GBM cells (TAT 500[…]μM, 24 hours, CTRL 971); 1237 in the experiment with T98G GBM cells (TAT 500[…]μM, 48 hours, CTRL 1305); 1205 in the experiment on T98G GBM cells (TAT 500[…]μM, 72 hours, CTRL 1481). Also, the “percent of apoptotic cells” value is given as 10.0% in the experiment with U251 GBM cells (TAT 50 uM, 6 hr, CTRL 4.6); 11.0% in the experiment with U251 GBM cells (TAT 50 uM, 9 hr, CTRL 6.0); 8.0% with U251 GBM cells (TAT 50 uM, 24 hr, CTRL 7.0). Also, the “DNA fragmentation, TUNEL staining” value in the experiment on U251 cells is “did not show fragmented DNA or cell loss”.

Turning to “P1-WD: fusion Trojan peptide SEQ ID 3: Penetratin, glycine, PTPRG wedge domain aa 831-856; RQIKIWFQNRRMKWKKGKQFVKHIGELYSNNQHGFSEDFEEVQ (listed as Homo sapiens)”, in the experiment on JAK2 (pYpY1007/1008) (setting [2]), the “p-JAK2 ELISA, percentages of fold increases over the control” value turned out to be 51%. Besides, the “absorbance in the MTT assay” value in the experiment with T98G GBM cells (P1-WD 10 μM, 24 hours, Control 971) stood at 629; with T98G GBM cells (P1-WD 10 μM, 48 hours, Control 1305), 854; in the experiment on T98G GBM cells (P1-WD 10 μM, 72 hours, Control 1481), 985; with T98G GBM cells (P1-WD 25 μM, 24 hours, Control 971), 555; with T98G GBM cells (P1-WD 25 μM, 48 hours, Control 1305), 697; with T98G GBM cells (P1-WD 25 μM, 72 hours, Control 1481) it was 835. Besides, the “absorbance in the MTT assay” value was 540 with T98G GBM cells (setting [3]), 744 with T98G GBM cells (setting [4]) and 842 in the experiment on T98G GBM cells (setting [5]). Also, the “percent of apoptotic cells” value in the experiment with U251 GBM cells (P1-WD 10 μM, 6 h, Control 5) is reported as 13%; in the experiment with U251 GBM cells (P1-WD 10 μM, 9 h, Control 12), 21%; in the experiment with U251 GBM cells (P1-WD 10 μM, 24 h, Control 8), 25%; in the experiment on U251 GBM cells (P1-WD 25 μM, 6 h, Control 5) it was 21%; with U251 GBM cells (P1-WD 25 μM, 9 h, Control 12) it was 30%; in the experiment with U251 GBM cells (P1-WD 25 μM, 24 h, Control 8), 30%. Also, the “percent of apoptotic cells” value with U251 GBM cells (setting [6]) worked out at 33%; in the experiment on U251 GBM cells (setting [7]) it was 40%; in the experiment on U251 GBM cells (setting [8]) it was 40%. Besides, in the experiment with U251 cells, the “DNA fragmentation, TUNEL staining” value is reported as “fragmented DNA as early as 3 hours after initiation of treatment”.
